Data from patent US20230219986A1, “NOVEL AMINOPYRIMIDINE EGFR INHIBITOR” (QILU PHARMACEUTICAL CO., LTD., priority 2020, published 2023).

What was measured:
[1] = molecular target: Ba/F3 L858R/T790M/C797S EGFR triple mutant cell line (Homo sapiens, UniProt P00533, T790M/C797S/L858R, cells depend on it); test: Cell proliferation inhibition experiment (CellTiter-Glo), Ba/F3 L858R/T790M/C797S; format: cell-based; details: 72 hours, Cell Titer-Glo, read-out: Ba/F3 (L858R/T790M/C797S) IC50
[2] = test system: EGFR wild-type cell line A431; test: Cell proliferation inhibition experiment (CellTiter-Glo), A431; format: cell-based; details: Homo sapiens, A-431, 72 h, A431 cells, Cell Titer-Glo, read-out: A431 EGFR WT IC50
Outline: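 A431 cells, 800 per well, were cultured 24 h and then exposed to serially diluted compound (0.1% DMSO final) for 72 h at 37° C., 5% CO2.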

[3] = molecular target: T1, wild-type EGFR (Homo sapiens, UniProt P00533); test: Enzymology experiment in vitro (HTRF/FRET kinase activity), wild-type EGFR; format: biochemical; details: HTRF KinEASE-TK, read-out: EGFR (WT) IC50
T1 construct: purchased Signalchem
Outline: (§1)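 HTRF KinEASE-TK format: EGFR enzyme preincubated with compound 10 min at room temperature, then peptide substrate plus ATP added for 40 min. Detection with EDTA, XL665-streptavidin and Eu³⁺-labeled antibody for 1 h.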

[4] = molecular target: Ba/F3 De119/T790M/C797S EGFR triple mutant cell line (Homo sapiens, UniProt P00533, T790M/C797S, cells depend on it, form not given); test: Cell proliferation inhibition experiment (CellTiter-Glo), Ba/F3 De119/T790M/C797S; format: cell-based; details: Ba/F3 Del19/T790M/C797S EGFR triple mutant cells, 72 hours, Cell Titer-Glo; read-out: Ba/F3 (Del19/T790M/C797S) IC50
[5] = molecular target: T2, L858R/T790M/C797S triple mutant EGFR (Homo sapiens, UniProt P00533, C797S/L858R/T790M); test: Enzymology experiment in vitro (HTRF/FRET kinase activity), L858R/T790M/C797S triple mutant EGFR; format: biochemical; details: HTRF KinEASE-TK, read-out: EGFR (L858R/T790M/C797S) IC50
T2 construct: purchased Signalchem
Outline: as §1

Chain of Ba/F3 De119/T790M/C797S EGFR triple mutant cell line (P00533 with tags, fused parts or gaps DEL746-750/T790M/C797S, form open): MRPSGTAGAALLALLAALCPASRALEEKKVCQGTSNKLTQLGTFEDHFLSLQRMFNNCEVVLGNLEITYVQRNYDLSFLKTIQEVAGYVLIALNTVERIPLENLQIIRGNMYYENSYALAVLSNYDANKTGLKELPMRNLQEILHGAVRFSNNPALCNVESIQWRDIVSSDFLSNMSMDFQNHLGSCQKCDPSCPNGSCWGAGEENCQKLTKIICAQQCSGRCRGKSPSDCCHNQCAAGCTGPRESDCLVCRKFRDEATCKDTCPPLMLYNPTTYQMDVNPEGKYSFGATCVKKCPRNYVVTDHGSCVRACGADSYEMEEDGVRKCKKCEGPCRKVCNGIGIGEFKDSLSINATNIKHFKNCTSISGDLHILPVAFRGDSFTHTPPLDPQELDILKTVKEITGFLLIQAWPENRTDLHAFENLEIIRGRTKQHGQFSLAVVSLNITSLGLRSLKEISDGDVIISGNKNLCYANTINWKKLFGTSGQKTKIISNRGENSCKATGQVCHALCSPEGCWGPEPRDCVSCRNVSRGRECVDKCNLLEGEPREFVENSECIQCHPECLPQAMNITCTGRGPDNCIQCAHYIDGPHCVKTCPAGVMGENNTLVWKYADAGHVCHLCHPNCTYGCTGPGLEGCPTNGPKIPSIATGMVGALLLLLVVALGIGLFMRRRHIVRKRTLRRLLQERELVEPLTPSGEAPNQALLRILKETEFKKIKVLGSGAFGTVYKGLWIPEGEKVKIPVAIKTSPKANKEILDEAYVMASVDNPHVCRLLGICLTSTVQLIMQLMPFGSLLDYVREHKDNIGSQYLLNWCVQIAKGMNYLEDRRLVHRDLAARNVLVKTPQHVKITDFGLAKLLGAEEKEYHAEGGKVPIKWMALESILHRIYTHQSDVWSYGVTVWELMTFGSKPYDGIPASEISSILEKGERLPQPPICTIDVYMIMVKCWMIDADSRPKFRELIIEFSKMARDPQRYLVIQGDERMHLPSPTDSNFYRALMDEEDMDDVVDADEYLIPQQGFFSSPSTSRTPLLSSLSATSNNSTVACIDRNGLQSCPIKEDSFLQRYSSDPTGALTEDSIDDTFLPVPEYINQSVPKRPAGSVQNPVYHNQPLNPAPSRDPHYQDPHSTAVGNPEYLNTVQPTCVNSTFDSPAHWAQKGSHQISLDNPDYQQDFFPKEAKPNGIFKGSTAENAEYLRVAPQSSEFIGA
Chain of Ba/F3 L858R/T790M/C797S EGFR triple mutant cell line (P00533 whole entry T790M/C797S/L858R): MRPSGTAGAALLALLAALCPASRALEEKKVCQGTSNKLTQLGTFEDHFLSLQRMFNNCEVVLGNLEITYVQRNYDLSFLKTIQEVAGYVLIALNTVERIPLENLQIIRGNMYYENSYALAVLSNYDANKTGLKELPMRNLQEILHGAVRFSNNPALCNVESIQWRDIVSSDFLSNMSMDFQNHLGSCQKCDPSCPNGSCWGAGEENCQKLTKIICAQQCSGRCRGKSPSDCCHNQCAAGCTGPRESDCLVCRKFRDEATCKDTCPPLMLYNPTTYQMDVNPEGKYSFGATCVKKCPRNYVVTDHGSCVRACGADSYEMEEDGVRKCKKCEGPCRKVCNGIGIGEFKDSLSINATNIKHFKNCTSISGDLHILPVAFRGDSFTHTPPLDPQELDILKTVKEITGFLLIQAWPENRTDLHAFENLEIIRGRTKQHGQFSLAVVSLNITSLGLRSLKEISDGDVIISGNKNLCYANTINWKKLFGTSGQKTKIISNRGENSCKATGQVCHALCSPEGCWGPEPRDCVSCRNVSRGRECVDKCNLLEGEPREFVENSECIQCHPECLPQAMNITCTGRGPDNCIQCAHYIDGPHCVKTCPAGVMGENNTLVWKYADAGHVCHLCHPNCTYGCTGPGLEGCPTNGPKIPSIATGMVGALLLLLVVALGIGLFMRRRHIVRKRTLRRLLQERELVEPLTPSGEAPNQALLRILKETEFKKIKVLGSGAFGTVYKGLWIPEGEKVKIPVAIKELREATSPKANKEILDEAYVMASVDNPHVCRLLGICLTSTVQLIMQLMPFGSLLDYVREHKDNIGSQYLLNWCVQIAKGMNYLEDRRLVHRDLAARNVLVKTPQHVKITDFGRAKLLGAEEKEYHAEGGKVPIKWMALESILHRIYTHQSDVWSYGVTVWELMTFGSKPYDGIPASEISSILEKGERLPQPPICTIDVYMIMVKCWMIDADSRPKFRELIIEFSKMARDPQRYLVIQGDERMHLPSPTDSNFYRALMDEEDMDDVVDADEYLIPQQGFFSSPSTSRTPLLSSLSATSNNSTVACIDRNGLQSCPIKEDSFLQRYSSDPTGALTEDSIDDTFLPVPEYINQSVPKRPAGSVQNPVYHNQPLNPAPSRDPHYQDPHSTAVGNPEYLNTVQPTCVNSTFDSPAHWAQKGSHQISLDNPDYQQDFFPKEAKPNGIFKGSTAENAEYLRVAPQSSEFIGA
T2 sequence (P00533 25-1210 T790M/C797S/L858R): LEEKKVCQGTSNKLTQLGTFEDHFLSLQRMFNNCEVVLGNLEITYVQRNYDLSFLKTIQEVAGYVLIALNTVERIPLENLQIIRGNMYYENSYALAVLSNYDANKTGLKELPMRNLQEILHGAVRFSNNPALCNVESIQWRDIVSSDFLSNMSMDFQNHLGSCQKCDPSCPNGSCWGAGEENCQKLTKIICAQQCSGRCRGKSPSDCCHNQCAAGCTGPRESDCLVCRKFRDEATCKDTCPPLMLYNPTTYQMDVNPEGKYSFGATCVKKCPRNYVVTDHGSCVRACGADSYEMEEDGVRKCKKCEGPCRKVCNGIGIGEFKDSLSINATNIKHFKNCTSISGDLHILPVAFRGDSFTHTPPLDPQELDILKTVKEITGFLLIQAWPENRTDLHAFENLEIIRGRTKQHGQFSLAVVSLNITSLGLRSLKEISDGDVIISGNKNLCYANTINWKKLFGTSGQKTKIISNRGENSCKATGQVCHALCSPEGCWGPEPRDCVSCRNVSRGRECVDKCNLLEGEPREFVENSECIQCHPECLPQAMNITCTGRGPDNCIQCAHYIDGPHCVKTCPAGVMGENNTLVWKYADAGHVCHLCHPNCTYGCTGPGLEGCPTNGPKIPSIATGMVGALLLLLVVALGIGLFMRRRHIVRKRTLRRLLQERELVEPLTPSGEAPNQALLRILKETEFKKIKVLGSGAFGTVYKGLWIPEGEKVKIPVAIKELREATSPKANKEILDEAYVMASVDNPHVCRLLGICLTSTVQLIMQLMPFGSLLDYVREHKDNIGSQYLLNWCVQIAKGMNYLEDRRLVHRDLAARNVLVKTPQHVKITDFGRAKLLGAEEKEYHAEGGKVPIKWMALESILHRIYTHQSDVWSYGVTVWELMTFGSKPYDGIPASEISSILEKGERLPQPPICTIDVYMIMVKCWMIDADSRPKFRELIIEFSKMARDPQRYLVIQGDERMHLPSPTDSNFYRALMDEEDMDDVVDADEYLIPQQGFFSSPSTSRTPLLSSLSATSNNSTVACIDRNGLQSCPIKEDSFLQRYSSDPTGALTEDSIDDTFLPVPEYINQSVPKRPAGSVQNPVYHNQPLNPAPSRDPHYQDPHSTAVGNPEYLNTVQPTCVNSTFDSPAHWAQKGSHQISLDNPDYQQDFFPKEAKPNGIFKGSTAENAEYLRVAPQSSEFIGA
T1 sequence (P00533 25-1210): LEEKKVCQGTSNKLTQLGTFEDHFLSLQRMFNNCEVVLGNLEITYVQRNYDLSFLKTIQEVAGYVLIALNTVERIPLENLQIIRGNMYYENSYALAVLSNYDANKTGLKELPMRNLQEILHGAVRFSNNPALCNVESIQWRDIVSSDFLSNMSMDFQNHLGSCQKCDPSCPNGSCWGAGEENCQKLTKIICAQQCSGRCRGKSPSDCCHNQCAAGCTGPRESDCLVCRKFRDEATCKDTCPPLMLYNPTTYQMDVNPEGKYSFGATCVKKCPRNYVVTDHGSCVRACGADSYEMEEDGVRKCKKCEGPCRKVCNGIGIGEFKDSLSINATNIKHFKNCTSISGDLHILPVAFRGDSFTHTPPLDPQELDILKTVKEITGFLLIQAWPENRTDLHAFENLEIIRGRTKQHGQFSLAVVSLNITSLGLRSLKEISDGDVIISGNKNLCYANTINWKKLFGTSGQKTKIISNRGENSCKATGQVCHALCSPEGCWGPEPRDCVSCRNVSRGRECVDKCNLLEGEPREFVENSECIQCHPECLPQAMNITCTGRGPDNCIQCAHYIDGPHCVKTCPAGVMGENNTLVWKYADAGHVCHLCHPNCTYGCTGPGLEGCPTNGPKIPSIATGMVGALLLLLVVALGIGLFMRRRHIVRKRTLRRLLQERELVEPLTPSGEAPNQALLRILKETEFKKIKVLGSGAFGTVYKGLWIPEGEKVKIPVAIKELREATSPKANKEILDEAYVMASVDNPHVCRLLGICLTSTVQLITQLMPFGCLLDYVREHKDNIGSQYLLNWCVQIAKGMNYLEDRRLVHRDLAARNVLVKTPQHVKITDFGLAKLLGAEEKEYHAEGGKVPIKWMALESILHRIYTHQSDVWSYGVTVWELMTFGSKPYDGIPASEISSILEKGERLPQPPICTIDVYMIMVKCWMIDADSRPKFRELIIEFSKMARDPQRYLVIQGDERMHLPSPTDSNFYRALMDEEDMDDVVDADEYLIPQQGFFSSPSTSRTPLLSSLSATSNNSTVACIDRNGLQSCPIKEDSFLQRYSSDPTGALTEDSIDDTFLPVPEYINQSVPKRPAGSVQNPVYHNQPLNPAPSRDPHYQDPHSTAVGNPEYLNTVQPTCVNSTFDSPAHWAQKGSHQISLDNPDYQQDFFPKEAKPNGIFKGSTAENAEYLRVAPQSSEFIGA

Row | Compound | GI50 [1] | IC50 [2] | IC50 [3] | GI50 [4] | IC50 [5]
1 | COc1cc(N2CCOCC2)c(-c2cnn(C)c2)cc1Nc1ncc(Br)c(Nc2ccc3c(c2P(C)(C)=O)CC3)n1 [compound 85] | 9.29 nM | 381 nM | 9.06 nM | 6.15 nM | 0.11 nM
2 | COc1cc(N2CCC3(CC2)CCN(C(C)CF)CC3)c(-c2cnn(C)c2)cc1Nc1ncc(Br)c(Nc2ccc3nccnc3c2P(C)(C)=O)n1 (centres unmarked) [compound 246] | 3.64 nM | 128 nM | 1.05 nM | 2.59 nM | 0.4 nM
3 | [2H]C([2H])([2H])N(c1cc(OC)c(Nc2ncc(C)c(Nc3ccc4nccnc4c3P(C)(C)=O)n2)cc1-c1cnn(C)c1)C([2H])([2H])[2H] [compound 143] | 10.2 nM | 420 nM | 1.75 nM | 3.23 nM | 0.41 nM
4 | COc1cc(N2CCOCC2)c(-c2cnn(C)c2)cc1Nc1nc(Nc2ccccc2P(C)(C)=O)c2ccccc2n1 [compound 3] | 444 nM | 2240 nM | 1250 nM | 281 nM | 22 nM
5 | COc1cc(N2CCC(OCC3CC3)CC2)c(-c2cnn(C)c2)cc1Nc1ncc(Br)c(Nc2ccc3ncccc3c2P(C)(C)=O)n1 [compound 225] | 11.3 nM | 370 nM | 10.8 nM | 3.54 nM | 1.96 nM
6 | COc1cc(N2CCOCC2)c(-c2cnoc2)cc1Nc1ncc(Br)c(Nc2ccc3nccnc3c2P(C)(C)=O)n1 [compound 19] | 68.8 nM | 488 nM | 39.3 nM | 6.71 nM | 0.17 nM
7 | COc1c(Nc2ncc(Br)c(Nc3ccc4nccnc4c3P(C)(C)=O)n2)cc(-c2cnn(C)c2)c(N2CCC(N3CCN(C)CC3)CC2)c1F [compound 93] | 27 nM | 178 nM | 23.1 nM | 12.5 nM | 0.18 nM
8 | COc1cc(N2CCC(C)(OC)CC2)c(-c2c[nH]n(C)c2=O)cc1Nc1ncc(Br)c(Nc2ccc3nccnc3c2P(C)(C)=O)n1 [compound 241] | 12.3 nM | 182 nM | 30.1 nM | 2.92 nM | 0.13 nM
9 | COc1cc(N2CCOCC2)c(-c2cnn(C)c2)cc1Nc1ncc(Br)c(Nc2cc3c(cc2P(C)(C)=O)CC3)n1 [Compound 79, (4-((5-bromo-2-((2-methoxy-5-(1-methyl-1H-pyrazol-4-yl)-4-morpholinylphenyl)amino)pyrimidin-4-yl)amino)bicyclo[4.2.0]octa-1,3,5-trien-3-yl)dimethylphosphine oxide] | 13.5 nM | 633 nM | 29.9 nM | 9.89 nM | 0.45 nM
10 | COc1cc(N2CCC(C)(OC)CC2)c(-c2cnn(C)c2)cc1Nc1ncc(Cl)c(Nc2ccc3nccnc3c2P(C)(C)=O)n1 [compound 239] | 4.61 nM | 141 nM | 7.57 nM | 2.1 nM | 1.6 nM
11 | CN1CCN(c2noc3c(Nc4ncc(Br)c(Nc5ccc6nccnc6c5P(C)(C)=O)n4)cc(-c4cnn(C)c4)cc23)CC1 [compound 200] | 22 nM | 69.6 nM | 7.56 nM | 7.47 nM | 0.19 nM

The remaining lines, values ahead:

Row | GI50 [1] | IC50 [2] | IC50 [3] | GI50 [4] | IC50 [5] | Compound
12 | 2.79 nM | 26.2 nM | 1.37 nM | 2.41 nM | 0.09 nM | COc1cc(N2CCC3C(C2)CN3C)c(-c2cnn(C)c2)cc1Nc1ncc(Br)c(Nc2ccc3nccnc3c2P(C)(C)=O)n1 (racemic) [compound 221]
13 | 15.6 nM | 320 nM | 27.7 nM | 2.98 nM | 0.67 nM | COc1cc(N2CC(C)OC(C)C2)c(-c2cnn(C)c2)cc1Nc1ncc(Br)c(Nc2ccc3nccnc3c2P(C)(C)=O)n1 (single isomer, unassigned) [155a]
14 | 13.3 nM | 402 nM | 15.6 nM | 3.68 nM | 0.47 nM | COc1cc(N2CC(C)OC(C)C2)c(-c2cnn(C)c2)cc1Nc1ncc(Br)c(Nc2ccc3nccnc3c2P(C)(C)=O)n1 (racemic) [compound 135, (6-((5-bromo-2-((4-(trans-2,6-dimethylmorpholinyl)-2-methoxy-5-(1-methyl-1H-pyrazol-4-yl)phenyl)amino))pyrimidin-4-yl)amino)quinoxalin-5-yl)dimethylphosphine oxide]
15 | 23.6 nM | 128 nM | 1.08 nM | 9.18 nM | 0.16 nM | COc1cc(N2CCC(N3CCN(C)CC3)C(F)C2)c(-c2cnn(C)c2)cc1Nc1ncc(Br)c(Nc2ccc3nccnc3c2P(C)(C)=O)n1 (centres unmarked) [compound 189]
16 | 6.16 nM | 150 nM | 0.67 nM | 1.61 nM | 0.25 nM | COc1cc(N2CCC(O)CC2)c(-c2cnn(C)c2)cc1Nc1ncc(Br)c(Nc2ccc3nccnc3c2P(C)(C)=O)n1 [compound 121, (6-((5-bromo-2-((4-(4-hydroxypiperidin-1-yl)-2-methoxy-5-(1-methyl-1H-pyrazol-4-yl)phenyl)amino]pyrimidin-4-yl)amino)quinoxalin-5-yl)dimethylphosphine oxide]
17 | 11.2 nM | 271 nM | 5.41 nM | 5.86 nM | 0.56 nM | COc1cc(N2C[C@H]3C[C@@H]2CO3)c(-c2cnn(C)c2)cc1Nc1ncc(Br)c(Nc2ccc3nccnc3c2P(C)(C)=O)n1 [compound 114]
18 | 4.87 nM | 139 nM | 1.86 nM | 1.47 nM | 0.36 nM | COc1cc(N2CCC(N3CCOCC3)C(F)C2)c(-c2cnn(C)c2)cc1Nc1ncc(Br)c(Nc2ccc3nccnc3c2P(C)(C)=O)n1 (centres unmarked) [compound 214]
19 | 2.78 nM | 124 nM | 5.04 nM | 0.7 nM | 0.64 nM | COc1cc(N2CCC(N3CCOC(C)C3)CC2)c(-c2cnn(C)c2)cc1Nc1ncc(Br)c(Nc2ccc3nccnc3c2P(C)(C)=O)n1 (racemic) [compound 148, (6-((5-bromo-2-((2-methoxy-5-(1-methyl-1H-pyrazol-4-yl)-4-(4-(2-methylmorpholinyl)piperidin-1-yl)phenyl)amino)pyrimidin-4-yl)amino)quinoxalin-5-yl)dimethylphosphine oxide]
20 | 11.9 nM | 397 nM | 6.83 nM | 2.86 nM | 0.53 nM | COc1cc(N2CCC(OC)C2)c(-c2cnn(C)c2)cc1Nc1ncc(Br)c(Nc2ccc3nccnc3c2P(C)(C)=O)n1 (centres unmarked) [compound 128]
21 | 2.02 nM | 70.4 nM | 4.22 nM | 1.22 nM | 0.3 nM | COc1cc(N2CCN(CCC(F)F)CC2)c(-c2cnn(C)c2)cc1Nc1ncc(Br)c(Nc2ccc3nccnc3c2P(C)(C)=O)n1 [compound 222, (6-((5-Bromo-2-((4-(4-(3,3-difluoropropyl)piperazin-1-yl)-2-methoxy-5-(1-methyl-1H-pyrazol-4-yl)phenyl)amino)pyrimidin-4-yl)amino)quinoxalin-5-yl)dimethylphosphine oxide]
22 | 10.9 nM | 162 nM | 1.54 nM | 3.7 nM | 0.57 nM | COc1cc(N2CCN(S(C)(=O)=O)CC2)c(-c2cnn(C)c2)cc1Nc1ncc(Br)c(Nc2ccc3nccnc3c2P(C)(C)=O)n1 [compound 110]
